From patent publication US7556938B1, “Nucleic acids encoding potassium channel interactors” (Millennium Pharmaceuticals, Inc., priority 1998, dated 2009)

Tests used:
Type in all cases: cell-based
Kv4.3/KChIP1 = target: T1, Kv4.3/KChIP1 (Rattus norvegicus, UniProt Q62897); test: Fatty acid modulation of Kv4.3/KChIP1 current in Xenopus oocytes
T1 sequence (Q62897 1-655): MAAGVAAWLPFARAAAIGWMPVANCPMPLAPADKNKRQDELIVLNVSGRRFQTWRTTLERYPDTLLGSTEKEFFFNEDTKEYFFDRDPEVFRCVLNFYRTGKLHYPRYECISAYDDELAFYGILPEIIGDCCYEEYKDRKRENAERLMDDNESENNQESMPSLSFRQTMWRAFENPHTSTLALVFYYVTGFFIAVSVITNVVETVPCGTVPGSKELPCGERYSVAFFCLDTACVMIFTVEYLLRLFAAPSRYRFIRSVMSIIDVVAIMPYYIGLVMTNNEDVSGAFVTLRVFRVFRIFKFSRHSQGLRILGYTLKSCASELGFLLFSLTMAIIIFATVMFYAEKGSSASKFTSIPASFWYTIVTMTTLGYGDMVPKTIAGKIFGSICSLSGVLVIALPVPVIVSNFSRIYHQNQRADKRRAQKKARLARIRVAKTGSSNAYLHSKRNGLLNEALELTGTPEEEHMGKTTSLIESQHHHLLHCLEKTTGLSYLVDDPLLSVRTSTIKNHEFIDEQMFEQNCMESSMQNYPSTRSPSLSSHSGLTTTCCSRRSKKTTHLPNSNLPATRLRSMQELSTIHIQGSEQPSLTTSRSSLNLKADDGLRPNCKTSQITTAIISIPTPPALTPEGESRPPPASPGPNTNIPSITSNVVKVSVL
T1 sequence (Q8R426 1-216 isoform Q8R426-2 partner): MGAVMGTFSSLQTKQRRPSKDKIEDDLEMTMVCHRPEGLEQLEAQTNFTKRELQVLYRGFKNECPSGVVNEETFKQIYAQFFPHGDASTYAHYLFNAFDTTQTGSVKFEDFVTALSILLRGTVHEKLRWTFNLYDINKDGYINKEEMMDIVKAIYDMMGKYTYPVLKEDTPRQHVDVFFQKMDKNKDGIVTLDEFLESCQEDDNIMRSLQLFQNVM
Method: Frogs underwent no more than two surgeries and surgeries were performed by well established techniques. Frogs were anesthetized with ice. Total cRNA (1-10 ng) was injected into stage IV Xenopus oocytes that were harvested the previous day. The Xenopus oocytes were incubated in ND96 containing (in mM) 96 NaCl, 2 KCl, 1.8 CaCl2, 1 MgCl2, 5 HEPES, pH 7.6, plus (Gentamycin 50 μg/ml) at 18° C. Xenopus oocytes were studied 3-7 days after injection. The two-electrode voltage-clamp recordings were performed in ND96 solution using a TURBO TEC 03 Clamp Amplifier (ALA Scientific Instruments, Westbury, N.Y.). Both electrodes were filled with 3 M KCl and had electrode resistances ranging from 0.2-1 MOhm. The current signals were filtered at 1000 Hz before transferred on a PC (Gateway, Calif.) using the PULSE software (HEKA, Germany). In this Example, the hypothesis that […] were the missing auxiliary subunits that accounted for the above kinetic discrepancy was investigated by expressing Kv4 alone or together with […] in both CHO cells and Xenopus oocytes, and measuring their inactivation time constants (using art known techniques as described in, for example, An et al. (2000) Nature 403:553-6; Keros, S. and […]. Neuroscience 17: 3476-87; and Villarroel, A. and […]. Neuroscience 16:2522-32). The effects of different concentrations of arachidonic acid on Kv4/KChIP current was studied in Xenopus oocytes. Because the physiological concentrations of arachidonic acid are often under 10 μM (Needleman, et al., 1986 Annu Rev Biochem 55:69-102; Anderson and Welsh, 1990, Proc Natl Acad Sci USA 87:7334-8; Meves, 1994, Prog Neurobiol 43:175-86), arachidonic acid was tested in the 1-10 μM range. […] Further, the slope of amplitude reduction as a function of increasing concentrations was very similar with or without the presence of […]. […] Villarroel and Schwarz, (1996) J.

Kv1.1/Kvβ1 = target: T2, Kv1.1/Kvβ1 (Rattus norvegicus, UniProt P10499); test: AA modulation of Kv1.1/Kvβ1 current in Xenopus oocytes; conditions: Kv1.1/Kvβ1, 10 μM AA, listed as AA
T2 construct: expressed in transfected cells; host or cells: Xenopus oocytes
T2 sequence (P10499 whole entry): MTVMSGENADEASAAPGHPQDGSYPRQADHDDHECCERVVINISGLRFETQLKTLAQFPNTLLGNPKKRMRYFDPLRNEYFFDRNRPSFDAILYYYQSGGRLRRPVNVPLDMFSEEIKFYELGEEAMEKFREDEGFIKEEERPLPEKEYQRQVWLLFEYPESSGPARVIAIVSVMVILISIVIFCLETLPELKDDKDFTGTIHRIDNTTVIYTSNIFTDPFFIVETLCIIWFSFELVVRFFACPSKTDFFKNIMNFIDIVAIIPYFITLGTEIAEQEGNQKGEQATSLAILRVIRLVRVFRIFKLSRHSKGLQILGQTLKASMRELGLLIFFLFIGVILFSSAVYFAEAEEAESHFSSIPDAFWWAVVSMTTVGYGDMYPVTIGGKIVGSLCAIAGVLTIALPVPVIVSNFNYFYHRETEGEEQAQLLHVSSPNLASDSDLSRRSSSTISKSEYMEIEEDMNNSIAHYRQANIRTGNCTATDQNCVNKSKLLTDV
Method: (§1) Frogs underwent no more than two surgeries and surgeries were performed by well established techniques. Frogs were anesthetized with ice. Total cRNA (1-10 ng) was injected into stage IV Xenopus oocytes that were harvested the previous day. The Xenopus oocytes were incubated in ND96 containing (in mM) 96 NaCl, 2 KCl, 1.8 CaCl2, 1 MgCl2, 5 HEPES, pH 7.6, plus (Gentamycin 50 μg/ml) at 18° C. Xenopus oocytes were studied 3-7 days after injection. The two-electrode voltage-clamp recordings were performed in ND96 solution using a TURBO TEC 03 Clamp Amplifier (ALA Scientific Instruments, Westbury, N.Y.). Both electrodes were filled with 3 M KCl and had electrode resistances ranging from 0.2-1 MOhm. The current signals were filtered at 1000 Hz before transferred on a PC (Gateway, Calif.) using the PULSE software (HEKA, Germany).
(§2) In this example, the foregoing was tested by measuring two alpha/auxiliary complexes: Kv4.3/KChIP1 and Kv1.1/Kvβ1. (Kvβ1, which is one of the classic potassium channel beta subunits, dramatically changes Kv1.1 kinetics). Kv4.3/KChIP and Kv1.1/Kvβ1 were expressed respectively in Xenopus oocytes and their resulting currents were recorded in the presence or absence of […] AA. […] Kinetically, […] was much more sensitive to AA modulation than was Kv1.1/Kvβ1 (Table 4).

Kv1.1 = target: T3, Kv1.1 (Rattus norvegicus, UniProt P10499); test: AA modulation of Kv1.1 current in Xenopus oocytes; conditions: Kv1.1 alone, 10 μM AA
T3 construct: expressed in transfected cells; host or cells: Xenopus oocytes
T3 sequence (P10499 whole entry): as above
Method: as §1, §2

[1] = Kv4.3/KChIP1, 10 μM AA, listed as AA

Inactivation time constant (ms ± SEM) (Kv4.3/KChIP1; [1]): 55 ± 4 ms
Peak amplitude (μA ± SEM) (Kv4.3/KChIP1; [1]): 21±4 μA
block of Kv4.3 peak amplitude (Kv4.3/KChIP1; Kv4.3/KChIP1, 10 μM fatty acid, vs no-fatty acid control): inhibited significantly
block of Kv4.3 peak amplitude (Kv4.3/KChIP1; Kv4.3/KChIP1, 1-10 μM arachidonic acid): concentration-dependent block
effect on Kv4.3 inactivation time constant (Kv4.3/KChIP1; Kv4.3 co-expressed with KChIP1, 10 μM fatty acid): reduced Kv4.3 inactivation time constant
Inactivation time constant (ms ± SEM) (Kv1.1/Kvβ1): 9 ± 1 ms
Peak amplitude (μA ± SEM) (Kv1.1/Kvβ1): 14±1 μA
Peak amplitude (μA ± SEM) (Kv1.1): 21 ± 3 μA
SMILES: CCCCC/C=C\C/C=C\C/C=C\C/C=C\CCCC(=O)O [arachidonic acid]
effect on inactivation time constant (Kv4.3/KChIP1; presence of KChIP1, 1-10 μM arachidonic acid): decreased in a concentration-dependent manner
